# Source: ChEMBL document CHEMBL1201861, “Genomics of Drug Sensitity in Cancer screening data, Wellcome Trust Sanger Institute”
# What was measured:
# Test in all cases: cells
# Format in all cases: functional, cell-based, Homo sapiens
# T47D = system: T47D;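 further: growth inhibition of human T47D cells, measured with a cell viability assay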
# Description: SANGER: Inhibition of human T47D cell growth in a cell viability assay.
# PC-3 = system: PC-3;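 further: cell viability assay measuring growth inhibition of PC-3 cells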
# Description: SANGER: Inhibition of human PC-3 cell growth in a cell viability assay.
# C-33-A = system: C-33-A;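 further: cell viability assay measuring growth inhibition of C-33-A cells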
# Description: SANGER: Inhibition of human C-33-A cell growth in a cell viability assay.
# OC-314 = system: OC-314
# Description: SANGER: Inhibition of human OC-314 cell growth in a cell viability assay.
# Daoy = system: Daoy;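 further: daoy cell growth inhibition, read out as cell viability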
# Description: SANGER: Inhibition of human Daoy cell growth in a cell viability assay.
# BEN = settings: Homo sapiens, BEN;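 further: growth inhibition of the BEN cell line, read out with a cell viability assay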
# Description: SANGER: Inhibition of human BEN cell growth in a cell viability assay.
# SW780 = system: SW780;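 further: growth inhibition of the cells, read out with a cell viability assay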
# Description: SANGER: Inhibition of human SW780 cell growth in a cell viability assay.
# KP-N-YN = system: KP-N-YN;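 further: growth inhibition of KP-N-YN cells, read out with a cell viability assay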
# Description: SANGER: Inhibition of human KP-N-YN cell growth in a cell viability assay.
# SW1990 = system: SW1990;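 further: cell growth inhibition determined with a viability assay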
# Description: SANGER: Inhibition of human SW1990 cell growth in a cell viability assay.
# S-117 = system: S-117
# Description: SANGER: Inhibition of human S-117 cell growth in a cell viability assay.
# HN = system: HN
# Description: SANGER: Inhibition of human HN cell growth in a cell viability assay.
# HT-29 = system: HT-29;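 further: growth inhibition of human HT-29 cells, read out by a cell viability assay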
# Description: SANGER: Inhibition of human HT-29 cell growth in a cell viability assay.
# HT-1376 = system: HT-1376
# Description: SANGER: Inhibition of human HT-1376 cell growth in a cell viability assay.
# DOK = system: DOK;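 further: cell viability assay read-out, values reflect inhibition of cell growth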
# Description: SANGER: Inhibition of human DOK cell growth in a cell viability assay.
# HOP-92 = system: HOP-92;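 further: cell viability readout, with IC50 reflecting inhibition of HOP-92 cell growth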
# Description: SANGER: Inhibition of human HOP-92 cell growth in a cell viability assay.
# HCC1937 = system: HCC1937;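 further: growth inhibition measured with a cell viability read-out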
# Description: SANGER: Inhibition of human HCC1937 cell growth in a cell viability assay.
# D-566MG = system: D-566MG
# HCC1569 = system: HCC1569;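 further: growth inhibition of human HCC1569 cells, read out with a cell viability assay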
# Description: SANGER: Inhibition of human HCC1569 cell growth in a cell viability assay.
# SK-MES-1 = system: SK-MES-1;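 further: growth inhibition of human SK-MES-1 cells, read out with a cell viability assay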
# Description: SANGER: Inhibition of human SK-MES-1 cell growth in a cell viability assay.
# SN12C = system: SN12C;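 further: growth inhibition of human SN12C cells, measured by a cell viability assay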
# Description: SANGER: Inhibition of human SN12C cell growth in a cell viability assay.
# HCC38 = system: HCC38;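 further: cell viability assay on the human HCC38 cell line, with IC50 marking the concentration that inhibits cell growth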
# Description: SANGER: Inhibition of human HCC38 cell growth in a cell viability assay.
# LCLC-97TM1 = system: LCLC-97TM1;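 further: cell viability assay measuring growth inhibition of human LCLC-97TM1 cells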
# Description: SANGER: Inhibition of human LCLC-97TM1 cell growth in a cell viability assay.
# OVCAR-5 = system: OVCAR-5;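 further: growth inhibition of human OVCAR-5 cells, read out with a cell viability assay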
# Description: SANGER: Inhibition of human OVCAR-5 cell growth in a cell viability assay.
# A-431 = system: A-431;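 further: growth inhibition of A-431 cells, determined with a cell viability read-out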
# Description: SANGER: Inhibition of human A431 cell growth in a cell viability assay.
# NCI-H2029 = system: NCI-H2029;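 further: Read-out is a viability assay on the cultured cells, and IC50 is the concentration that suppresses cell growth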
# Description: SANGER: Inhibition of human NCI-H2029 cell growth in a cell viability assay.
# SJRH30 = system: SJRH30;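 further: growth inhibition of human SJRH30 cells, read out with a cell viability assay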
# Description: SANGER: Inhibition of human SJRH30 cell growth in a cell viability assay.
# SKG-IIIa = system: SKG-IIIa;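 further: cell growth inhibition, read out with a cell viability assay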
# Description: SANGER: Inhibition of human SKG-IIIa cell growth in a cell viability assay.
# SK-OV-3 = system: SK-OV-3;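 further: growth inhibition of SK-OV-3 human cells, read out with a cell viability assay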
# Description: SANGER: Inhibition of human SK-OV-3 cell growth in a cell viability assay.
# NCI-H522 = settings: Homo sapiens, NCI-H522;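 further: cell viability assay measuring growth inhibition of human NCI-H522 cells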
# Description: SANGER: Inhibition of human NCI-H522 cell growth in a cell viability assay.
# KYSE-510 = system: KYSE-510;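 further: cell viability readout used to measure how strongly growth of the cell line is suppressed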
# Description: SANGER: Inhibition of human KYSE-510 cell growth in a cell viability assay.
# SW1783 = system: SW1783;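 further: cell growth inhibition measured with a viability assay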
# Description: SANGER: Inhibition of human SW1783 cell growth in a cell viability assay.
# RD = system: RD
# Description: SANGER: Inhibition of human RD cell growth in a cell viability assay.
# LN-405 = system: LN-405
# Description: SANGER: Inhibition of human LN-405 cell growth in a cell viability assay.
# KP-4 = system: KP-4;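 further: human KP-4 cells, with growth inhibition read out through a cell viability assay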
# Description: SANGER: Inhibition of human KP-4 cell growth in a cell viability assay.
# A 172 = system: A 172;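 further: growth inhibition of A172 cells, measured with a cell viability readout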
# Description: SANGER: Inhibition of human A172 cell growth in a cell viability assay.
# 23132-87 = system: 23132-87
# Description: SANGER: Inhibition of human 23132-87 cell growth in a cell viability assay.
# NCI-H2030 = system: NCI-H2030;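 further: growth inhibition of human NCI-H2030 cells, read out by a cell viability assay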
# Description: SANGER: Inhibition of human NCI-H2030 cell growth in a cell viability assay.
# UO-31 = system: UO-31;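 further: cell viability assay measuring inhibition of cell growth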
# Description: SANGER: Inhibition of human U031 cell growth in a cell viability assay.
# SW13 = system: SW13;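 further: IC50 is inhibition of SW13 cell growth, read out with a cell viability assay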
# Description: SANGER: Inhibition of human SW13 cell growth in a cell viability assay.
compound,measurement,setting,value
Cn1cnc2c(F)c(Nc3ccc(Br)cc3Cl)c(C(=O)NOCCO)cc21 [SELUMETINIB],IC50,"T47D; Homo sapiens, T47D",> 4 µM
same,IC50,"PC-3; Homo sapiens, PC-3",> 4 µM
same,IC50,"C-33-A; Homo sapiens, C-33-A",> 4 µM
same,IC50,"OC-314; Homo sapiens, OC-314",> 4 µM
same,IC50,"Daoy; Homo sapiens, Daoy",> 4 µM
same,IC50,BEN,> 4 µM
same,IC50,"SW780; Homo sapiens, SW780",0.666 µM
same,IC50,"KP-N-YN; Homo sapiens, KP-N-YN",> 4 µM
same,IC50,"SW1990; Homo sapiens, SW1990",> 4 µM
same,IC50,"S-117; Homo sapiens, S-117",> 4 µM
same,IC50,"HN; Homo sapiens, HN",1 µM
same,IC50,"HT-29; Homo sapiens, HT-29",0.873 µM
same,IC50,"HT-1376; Homo sapiens, HT-1376",> 4 µM
same,IC50,"DOK; Homo sapiens, DOK",0.147 µM
same,IC50,"HOP-92; Homo sapiens, HOP-92",> 4 µM
same,IC50,"HCC1937; Homo sapiens, HCC1937",> 4 µM
same,IC50,"D-566MG; Homo sapiens, D-566MG",> 4 µM
same,IC50,"HCC1569; Homo sapiens, HCC1569",> 4 µM
same,IC50,"SK-MES-1; Homo sapiens, SK-MES-1",> 4 µM
same,IC50,"SN12C; Homo sapiens, SN12C",3.96 µM
same,IC50,"HCC38; Homo sapiens, HCC38",> 4 µM
same,IC50,"LCLC-97TM1; Homo sapiens, LCLC-97TM1",1.03 µM
same,IC50,"OVCAR-5; Homo sapiens, OVCAR-5",> 4 µM
same,IC50,"A-431; Homo sapiens, A-431",> 4 µM
same,IC50,"NCI-H2029; Homo sapiens, NCI-H2029",> 4 µM
same,IC50,"SJRH30; Homo sapiens, SJRH30",> 4 µM
same,IC50,"SKG-IIIa; Homo sapiens, SKG-IIIa",> 4 µM
same,IC50,"SK-OV-3; Homo sapiens, SK-OV-3",> 4 µM
same,IC50,NCI-H522,> 4 µM
same,IC50,"KYSE-510; Homo sapiens, KYSE-510",> 4 µM
same,IC50,"SW1783; Homo sapiens, SW1783",> 4 µM
same,IC50,"RD; Homo sapiens, RD",> 4 µM
same,IC50,"LN-405; Homo sapiens, LN-405",> 4 µM
CO[C@H]1C[C@@H]2CC[C@@H](C)[C@@](O)(O2)C(=O)C(=O)N2CCCC[C@H]2C(=O)O[C@H]([C@H](C)C[C@@H]2CC[C@@H](OC(=O)C(C)(CO)CO)[C@H](OC)C2)CC(=O)[C@H](C)/C=C(\C)[C@@H](O)[C@@H](OC)C(=O)[C@H](C)C[C@H](C)/C=C/C=C/C=C/1C [TEMSIROLIMUS],IC50,"KP-4; Homo sapiens, KP-4",0.116 µM
same,IC50,"A 172; Homo sapiens, A 172",> 0.2 µM
same,IC50,"T47D; Homo sapiens, T47D",0.107 µM
same,IC50,"PC-3; Homo sapiens, PC-3",0.00914 µM
same,IC50,"C-33-A; Homo sapiens, C-33-A",> 0.2 µM
same,IC50,"OC-314; Homo sapiens, OC-314",0.0179 µM
same,IC50,"Daoy; Homo sapiens, Daoy",0.0517 µM
same,IC50,BEN,0.0315 µM
same,IC50,"SW780; Homo sapiens, SW780",0.00483 µM
same,IC50,"KP-N-YN; Homo sapiens, KP-N-YN",> 0.2 µM
same,IC50,"SW1990; Homo sapiens, SW1990",> 0.2 µM
same,IC50,"S-117; Homo sapiens, S-117",0.105 µM
same,IC50,"HN; Homo sapiens, HN",> 0.2 µM
same,IC50,"HT-29; Homo sapiens, HT-29",> 0.2 µM
same,IC50,"HT-1376; Homo sapiens, HT-1376",> 0.2 µM
same,IC50,"DOK; Homo sapiens, DOK",0.041 µM
same,IC50,"HOP-92; Homo sapiens, HOP-92",> 0.2 µM
same,IC50,"HCC1937; Homo sapiens, HCC1937",> 0.2 µM
same,IC50,"D-566MG; Homo sapiens, D-566MG",0.00716 µM
same,IC50,"HCC1569; Homo sapiens, HCC1569",> 0.2 µM
same,IC50,"SK-MES-1; Homo sapiens, SK-MES-1",> 0.2 µM
same,IC50,"SN12C; Homo sapiens, SN12C",0.183 µM
same,IC50,"HCC38; Homo sapiens, HCC38",> 0.2 µM
same,IC50,"LCLC-97TM1; Homo sapiens, LCLC-97TM1",> 0.2 µM
same,IC50,"OVCAR-5; Homo sapiens, OVCAR-5",0.124 µM
same,IC50,"A-431; Homo sapiens, A-431",> 0.2 µM
same,IC50,23132-87; Homo sapiens,0.0647 µM
same,IC50,"NCI-H2029; Homo sapiens, NCI-H2029",> 0.2 µM
same,IC50,"SJRH30; Homo sapiens, SJRH30",> 0.2 µM
same,IC50,"SKG-IIIa; Homo sapiens, SKG-IIIa",> 0.2 µM
same,IC50,"NCI-H2030; Homo sapiens, NCI-H2030",0.0981 µM
same,IC50,"SK-OV-3; Homo sapiens, SK-OV-3",> 0.2 µM
same,IC50,"KYSE-510; Homo sapiens, KYSE-510",> 0.2 µM
same,IC50,"SW1783; Homo sapiens, SW1783",> 0.2 µM
same,IC50,"UO-31; Homo sapiens, UO-31",> 0.2 µM
same,IC50,"RD; Homo sapiens, RD",0.144 µM
same,IC50,"SW13; Homo sapiens, SW13",0.186 µM
same,IC50,"LN-405; Homo sapiens, LN-405",0.135 µM
CS(=O)(=O)c1ccc(C(=O)Nc2ccc(Cl)c(-c3ccccn3)c2)c(Cl)c1 [VISMODEGIB],IC50,"KP-4; Homo sapiens, KP-4",> 10 µM
same,IC50,"A 172; Homo sapiens, A 172",> 10 µM
same,IC50,"T47D; Homo sapiens, T47D",> 10 µM
same,IC50,"PC-3; Homo sapiens, PC-3",> 10 µM
same,IC50,"C-33-A; Homo sapiens, C-33-A",> 10 µM
same,IC50,"OC-314; Homo sapiens, OC-314",> 10 µM
same,IC50,"Daoy; Homo sapiens, Daoy",> 10 µM
same,IC50,BEN,> 10 µM
same,IC50,"SW780; Homo sapiens, SW780",> 10 µM
same,IC50,"KP-N-YN; Homo sapiens, KP-N-YN",> 10 µM
same,IC50,"SW1990; Homo sapiens, SW1990",> 10 µM
same,IC50,"S-117; Homo sapiens, S-117",> 10 µM
same,IC50,"HN; Homo sapiens, HN",> 10 µM
same,IC50,"HT-29; Homo sapiens, HT-29",> 10 µM
same,IC50,"HT-1376; Homo sapiens, HT-1376",> 10 µM
same,IC50,"DOK; Homo sapiens, DOK",> 10 µM
same,IC50,"HOP-92; Homo sapiens, HOP-92",> 10 µM
same,IC50,"HCC1937; Homo sapiens, HCC1937",> 10 µM
same,IC50,"D-566MG; Homo sapiens, D-566MG",> 10 µM
same,IC50,"HCC1569; Homo sapiens, HCC1569",> 10 µM
same,IC50,"SK-MES-1; Homo sapiens, SK-MES-1",> 10 µM
same,IC50,"SN12C; Homo sapiens, SN12C",> 10 µM
same,IC50,"HCC38; Homo sapiens, HCC38",> 10 µM
same,IC50,"LCLC-97TM1; Homo sapiens, LCLC-97TM1",> 10 µM
same,IC50,"OVCAR-5; Homo sapiens, OVCAR-5",> 10 µM
same,IC50,"A-431; Homo sapiens, A-431",> 10 µM
same,IC50,23132-87; Homo sapiens,4.4 µM
same,IC50,"NCI-H2029; Homo sapiens, NCI-H2029",> 10 µM
same,IC50,"SJRH30; Homo sapiens, SJRH30",> 10 µM
same,IC50,"SKG-IIIa; Homo sapiens, SKG-IIIa",> 10 µM
same,IC50,"NCI-H2030; Homo sapiens, NCI-H2030",> 10 µM
same,IC50,"SK-OV-3; Homo sapiens, SK-OV-3",> 10 µM
same,IC50,"KYSE-510; Homo sapiens, KYSE-510",> 10 µM
same,IC50,"SW1783; Homo sapiens, SW1783",> 10 µM
same,IC50,"UO-31; Homo sapiens, UO-31",> 10 µM
same,IC50,"RD; Homo sapiens, RD",> 10 µM
same,IC50,"SW13; Homo sapiens, SW13",> 10 µM
same,IC50,"LN-405; Homo sapiens, LN-405",> 10 µM
CISPLATIN,IC50,KP-4; kp-4,11.7 µM
same,IC50,A 172; a 172,78.9 µM
same,IC50,T47D; t47d,129 µM
same,IC50,PC-3; pc-3,96.7 µM
same,IC50,C-33-A; c-33-a,9.11 µM
same,IC50,OC-314; oc-314,14 µM
same,IC50,Daoy; daoy,1.51 µM
same,IC50,SW780; sw780,14 µM
same,IC50,KP-N-YN; kp-n-yn,581 µM
same,IC50,SW1990; sw1990,9.71 µM
same,IC50,S-117; s-117,4.53 µM
same,IC50,HN; hn,36 µM
same,IC50,HT-29; ht-29,610 µM
same,IC50,HT-1376; ht-1376,98.9 µM
same,IC50,DOK; dok,12.5 µM
same,IC50,HOP-92; hop-92,3.51 µM
same,IC50,HCC1937; hcc1937,137 µM
same,IC50,D-566MG; d-566mg,3.48 µM
same,IC50,HCC1569; hcc1569,455 µM
same,IC50,SK-MES-1; sk-mes-1,129 µM
same,IC50,SN12C; sn12c,17.1 µM
same,IC50,HCC38; hcc38,160 µM
same,IC50,LCLC-97TM1; lclc-97tm1,19.8 µM
same,IC50,OVCAR-5; ovcar-5,4.02 µM
same,IC50,A-431; a-431,572 µM
same,IC50,23132-87,60.3 µM
same,IC50,NCI-H2029; nci-h2029,961 µM
same,IC50,SJRH30; sjrh30,98.3 µM
same,IC50,SKG-IIIa; skg-iiia,7.05 µM
same,IC50,NCI-H2030; nci-h2030,11.9 µM
same,IC50,SK-OV-3; sk-ov-3,614 µM
same,IC50,KYSE-510; kyse-510,3.38 µM
same,IC50,SW1783; sw1783,23.3 µM
same,IC50,UO-31; uo-31,12.9 µM
same,IC50,RD; rd,14.6 µM
same,IC50,SW13; sw13,14.3 µM
same,IC50,LN-405; ln-405,15.5 µM
